In ChEMBL document CHEMBL3407456, “Glycosylated enfuvirtide: a long-lasting glycopeptide with potent anti-HIV activity” (J Med Chem, 2015):

Assays:
[1] = Cytotoxicity against human TZM-bl cells assessed as reduction cell viability at <12.5 uM after 2 days by XTT assay; assay type: cell-based; settings: 48 h
[2] = Plasma concentration in Sprague-Dawley rat at […], sc after 6 hrs; assay type: ADME, organism-based
[3] = biological target: GP41 (Human immunodeficiency virus 1) (UniProt Q76270); test: Binding affinity to HIV1 gp41 (46 residues) assessed as effect on protein secondary structure measured as alpha-helicity in PBS buffer at pH 7.2 by circular dichroism assay (reference value: 117 %)
[4] = biological target: GP41 (Human immunodeficiency virus 1, UniProt Q76270); test: Binding affinity to HIV1 gp41 (46 residues) by surface plasmon resonance method
[5] = Half life in Sprague-Dawley rat at […], sc after 6 hrs; assay type: ADME, organism-based; settings: in vivo
[6] = tested on: Human immunodeficiency virus 1; test: Antiviral activity against HIV-1 SF33 infected in TZM-bl cells after 2 days by luciferase reporter gene assay; assay type: functional, organism-based; settings: Human immunodeficiency virus 1, SF33, TZM-bl, 48 h

enfuvirtide
Activity [1]: Non-toxic
concentration at 6 h [2]: < 1000 nM
Activity [3]: 67%
Kd [4]: 182 nM
half-life at 6 h [5]: 90 min
EC50 [6]: 3 nM
EC90 [6]: 23 nM
